“And” between values parts separate entries of the source, which are not always exact repeats. Identical values can stand only once.
Columns and labels:
[1] = system: male albino rats (Sprague Dawley); details: rat, in vivo, ip
[2] = system: rat; test: animal or person; assay type: in vivo

## CC(C)Cc1ccc(C(C)C(=O)O)cc1 (stereo not drawn) [ibuprofen]
[1]
  ED25 (95% CI): 117 mg/kg and 117 (90.1-196) mg/kg
[2]; Rattus norvegicus, ip, 0.5 h, read-out: ED50 (95% CI)
  ED50: 139 mg/kg
[2]; rat, in vivo
  timepoint of peak effect: 30 min p. appl.

Reference: US20160199349A1 (priority 2012, published 2016)
